For data set [1], the system named is human peripheral blood mononuclear cells (hPBMCs). Nature of the data set: Immunogenic reaction on human PBMCs (LEGENDplex Human Inflammation Panel). The format is cell-based. To be noted: for immune stimulation (secretion of inflammatory cytokines and chemokines): 1, 5, 10 uM aptamer, 24 and 72 h, versus mock or control aptamer. The protocol:
147. Human PBMCs were isolated from buffy coats provided by Carter BloodCare(Bedford, TX, USA). Isolation was carried out through density-gradient centrifugation utilizing FicollPaque Plus from GE Healthcare. The isolated human PBMCs suspended in cRPMI media were subjected to stimulation with or without the AYA1809002 and AYA1809004 aptamers and a control aptamer. Various concentrations (1, 5, and 10 uM) of these aptamers were used, along with positive control stimuli such as LPS (200 ng/mL), ODN 1826 (20 uM, Invitrogen), or a combination of LPS (100 ng/mL) and ODN 1826 (10 uM). Following incubation periods of 24 and 72 h, the cell supernatant was collected via centrifugation at 200 g for 3 min. Cytokine levels were evaluated using the LEGENDplex Human Inflammation Panel 1 from BioLegend (cat #740808, San Diego, CA, USA) following the manufacturer's protocol, soluble analytes were acquired using a Navios EX flow cytometer (Beckman Coulter Inc, Pasadena, CA USA), and subsequent analysis was performed using BioLegend's LEGENDPLEX™ system(San Diego, CA, USA).

Data set [2] can be described thus: Storage stability (Table 3). The format is physicochemical. To be noted: after 24 months at room temperature.
In data set [3] the test system is rat whole blood. The experiment in a line: Factor II activity, PT, APPT and TT in rat whole blood. As to conditions: dose-dependent manner. The format is biochemical.
The target in data set [4] is thrombin (Homo sapiens, UniProt P00734). Nature of the data set: Thrombin inhibition IC50 (Table 3). The format is biochemical. As to conditions: Table 3, AYA1809002.
Data set [5] has as its target thrombin over other serine proteases (Homo sapiens, UniProt P00734). The experiment in a line: Selectivity for thrombin over other serine proteases (Table 3). The format is biochemical. To be noted: Table 3, AYA1809002.
A short description of data set [6]: Onset, consistency and reversal of anticoagulant effect (Table 3). As to conditions: Table 3, AYA1809002. The format is in vivo.
Data set [7] can be described thus: Major bleeding rate in animal studies (Table 3). The format is in vivo.
Data set [8] is described as follows: Pharmacokinetics and renal clearance (Table 3). The format is in vivo. To be noted: Table 3, AYA1809002.

Data on two substances can be found in patent US20250304973A1, “HIGH-AFFINITY THROMBIN APTAMERS AND METHODS OF USE” (Ayass Bioscience LLC, priority 2024, published 2025).

Entries after “also recorded” stand apart in the source; their conditions may differ. Bounds are passed on as bounds.

“AYA1809004: ssDNA thrombin aptamer TCGTCAAGGTACGGTTGGGGGGGTGGGTGTTGACGTTGAA (DNA, backbone not given here)”: the “immune stimulation (secretion of inflammatory cytokines and chemokines)” value in data set [1] was “do not exhibit immune-stimulating properties”.
For the substance “AYA1809002: ssDNA thrombin aptamer GCGGTGTTGCTGGGGTTGGGAGGTTGGAGGAAGCAATCGC”, the “activity maintained on storage” value in data set [2] is reported as “Maintain >95%”. Moreover, in data set [3], the “APPT in rat whole blood” value is “extend”, the “Factor II activity in rat whole blood” value is “inhibit”, the “PT in rat whole blood” value is recorded as “extend” and the “TT in rat whole blood” value was “extend”. The IC50 in data set [4] is no more than 0.5 nM. Further, the “selectivity for thrombin over other serine proteases” value in data set [5] is >100-fold selectivity. In addition, in data set [6], the “Anticoagulant Effect Consistency: inter-individual variability in aPTT prolongation” value is reported as less than 15% inter-individual and the “Onset of Action: peak effect” value is “Peak effect withing 1 hour”. Further, the major bleeding rate entry in data set [7] was “(≤2% major bleeding”. Moreover, in data set [1], the “immune stimulation (secretion of inflammatory cytokines and chemokines)” value is recorded as “do not exhibit immune-stimulating properties; also recorded: did not exhibit immune-stimulating properties”. Further, the “Safety: immunogenicity and side effects” value in data set [1] (Table 3) is listed as “Low immunogenicity”. Also, in data set [8], the “Renal Clearance” value is reported as less than 50%.

Usually IC50 stands for the concentration at which inhibition is half-maximal. Low values mean inhibition by little substance, high ones a need for much substance.
